Experimental data taken from patent publication US20180325889A1, “IMMUNOREGULATORY AGENTS” (FLEXUS BIOSCIENCES, INC., priority 2014, published 2018).

What follows are compounds tested against T1, human IDO1/HEK293 cells (Homo sapiens, UniProt P14902) (assay: HEK Human IDO-1 cell-based IDO inhibition assay (kynurenine production)). Settings: HEK293 cells stably expressing human IDO1, 20 hours incubation, absorbance at 490 nm; read-out: HEK Human IDO-1 Bio Activity (IDO IC50).
T1 construct: expressed in transfected cells
T1 sequence (P14902 whole entry): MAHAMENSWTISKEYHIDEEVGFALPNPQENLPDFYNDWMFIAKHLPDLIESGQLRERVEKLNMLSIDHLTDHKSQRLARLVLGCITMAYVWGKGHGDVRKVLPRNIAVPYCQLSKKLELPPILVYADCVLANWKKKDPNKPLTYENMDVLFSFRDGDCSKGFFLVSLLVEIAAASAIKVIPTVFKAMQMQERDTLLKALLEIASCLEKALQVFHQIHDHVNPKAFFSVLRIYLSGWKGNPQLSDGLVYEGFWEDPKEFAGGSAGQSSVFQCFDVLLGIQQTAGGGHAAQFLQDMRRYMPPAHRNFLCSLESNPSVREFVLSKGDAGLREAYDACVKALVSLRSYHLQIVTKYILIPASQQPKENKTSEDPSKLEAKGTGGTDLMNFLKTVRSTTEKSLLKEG
Method: They were cultured in medium (DMEM with 10% FBS) containing 1 mg/ml G418 for two weeks.
The human IDO1/HEK293 cells were seeded at 10,000 cells per 50 μL per well with RPMI/phenol red free media contains 10% FBS in a 384-well black wall clear bottom tissue culture plate (Matrix Technologies LLC) 100 nL of certain concentration of compound was then added to each well using ECHO liquid handling systems. The cells were incubated for 20 hours in 37° C. incubator with 5% CO2.
The compound treatments were stopped by adding trichloroacetic acid (Sigma-Aldrich) to a final concentration at 0.2%. The cell plate was further incubated at 50° C. for 30 minute. The equal volume supernatant (20 μL) and 0.2% (w/v) Ehrlich reagent (4-dimethylaminobenzaldehyde, Sigma-Aldrich) in glacial acetic acid were mixed in a new clear bottom 384-well plate. This plate was then incubated at room temperature for 30 minute. The absorbance at 490 nm was measured on Envision plate reader.

SMILES	IC50
CCC(NC(=O)c1ccc(Cl)cc1)[C@H]1CC[C@H](Oc2ccnc3c(C(F)(F)F)cccc23)CC1 (stereo partly drawn) [Example 72, 4-Chloro-N-(1-((trans)-4-((8-(trifluoromethyl)quinolin-4-yl)oxy)cyclohexyl)propyl)benzamide]	< 2000 nM
Cc1cccc(C(=O)N[C@H](C)[C@H]2CC[C@@H](c3ccnc4ccc(F)cc43)CC2)c1 [Example 50, N-((R)-1-((1s,4S)-4-(6-fluoroquinolin-4-yl)cyclohexyl)ethyl)-3-methyl benzamide]	< 50 nM
COc1ccc(C(=O)N[C@H](C)[C@H]2CC[C@@H](c3ccnc4ccc(F)cc43)CC2)cc1 [Example 68, N-((R)-1-((1s,4S)-4-(6-fluoroquinolin-4-yl)cyclohexyl)ethyl)-4-methoxybenzamide]	< 50 nM
C[C@@H](NS(=O)(=O)c1cccc(Cl)c1)[C@H]1CC[C@@H](c2ccnc3ccc(F)cc32)CC1 [Example 44, 3-chloro-N-((R)-1-((1s,4S)-4-(6-fluoroquinolin-4-yl)cyclohexyl)ethyl)benzenesulfonamide]	< 50 nM
O=C(Nc1ccc(Cl)cc1F)NC1CCN(c2ccnc3ccc(F)cc23)CC1 [Example 92, 1-(4-Chloro-2-fluorophenyl)-3-(1-(6-fluoroquinolin-4-yl)piperidin-4-yl)urea]	< 2000 nM
CCC(NC(=O)c1ccc(Cl)cc1)[C@H]1CC[C@@H](Oc2ccnc3ccc(C(F)(F)F)cc23)CC1 (mixture of isomers) [Example 78, (±)-4-Chloro-N-(1-((cis)-4-((6-(trifluoromethyl)quinolin-4-yl)oxy)cyclohexyl)propyl)benzamide]	< 2000 nM
O=C(NCC1CCN(c2ccnc3ccc(F)cc23)CC1)c1cccc(Cl)c1 [Example 90]	< 2000 nM
C[C@@H](NC(=O)c1ccc(Cl)c(Cl)c1)[C@H]1CC[C@@H](c2ccnc3ccc(F)cc32)CC1 [Example 59, 3,4-dichloro-N-((R)-1-((1s,4S)-4-(6-fluoroquinolin-4-yl)cyclohexyl)ethyl)benzamide]	< 50 nM
COc1ccc(CN[C@H]2CC[C@H](c3ccccc3)CC2)cc1 [Example 97, trans-N-(4-Methoxybenzyl)-4-phenylcyclohexanamine]	< 250 nM
Cc1ccc(NC(=O)NC2CCN(c3ccnc4ccc(F)cc34)CC2)cc1 [Example 91, 1-(1-(6-Fluoroquinolin-4-yl)piperidin-4-yl)-3-(p-tolyl)urea]	< 250 nM
C[C@@H](NC(=O)c1ccccn1)[C@H]1CC[C@@H](c2ccnc3ccc(F)cc32)CC1 [Example 67, N-((R)-1-((1s,4S)-4-(6-fluoroquinolin-4-yl)cyclohexyl)ethyl)picolinamide]	< 50 nM
O=C(Cc1ccc(Cl)cc1)N[C@H]1CC[C@H](c2ccnc3ccc(F)cc32)CC1 [Example 144, 2-(4-Chlorophenyl)-N-(trans-4-(6-fluoroquinolin-4-yl)cyclohexyl)acetamide]	< 2000 nM
CC(C(=O)N[C@H]1CC[C@@H](c2ccnc3ccc(F)cc32)CC1)c1ccc(Cl)cc1 (stereo partly drawn) [Example 148, 2-(4-chlorophenyl)-N-(cis-4-(6-fluoroquinolin-4-yl)cyclohexyl)propanamide]	< 2000 nM
CCC(NC(=O)c1ccc(Cl)cc1)[C@H]1CC[C@@H](Oc2ccnc3ccccc23)CC1 (stereo partly drawn) [Example 80, 4-Chloro-N-(1-(cis-4-(quinolin-4-yloxy)cyclohexyl)propyl)benzamide]	< 2000 nM
O=C(Nc1ccc(F)c(F)c1)N[C@H]1CC[C@H](c2ccnc3ccc(F)cc32)CC1 [Example 123, 1-(3,4-difluorophenyl)-3-(trans-4-(6-fluoroquinolin-4-yl)cyclohexyl)urea]	< 250 nM
O=C(N[C@H]1CC[C@@H](c2ccnc3ccc(F)cc32)CC1)c1ccc(Cl)cc1 [Example 149, 4-chloro-N-(cis-4-(6-fluoroquinolin-4-yl)cyclohexyl)benzamide]	< 250 nM
O=C(Nc1ccc(Cl)cc1)[C@H]1CC[C@@H](c2ccnc3ccc(F)cc32)CC1 [Example 76, (cis)-N-(4-Chlorophenyl)-4-(6-fluoroquinolin-4-yl)cyclohexanecarboxamide]	< 2000 nM

Other lines, results leading:

IC50	SMILES
< 250 nM	CCC(NC(=O)c1ccc(Cl)cc1)C1CCC(c2ccnc3ccc(F)cc23)CC1 (single isomer, unassigned) [Example 164a, 4-Chloro-N-(1-(4-(6-fluoroquinolin-4-yl)cyclohexyl)propyl)benzamide]
< 2000 nM	CC(NC(=O)c1ccc(Cl)cc1)C1CCC(c2ccc(C(F)(F)F)nc2)CC1 (single isomer, unassigned) [Example 218, 4-chloro-N-(1-(4-(6-(trifluoromethyl)pyridin-3-yl)cyclohexyl)ethyl)benzamide]
< 2000 nM	CC[C@@H](NC(=O)c1ccc(Cl)cc1)[C@H]1CC[C@@H](c2cnc3ccccc3c2)CC1 (single isomer, unassigned) [Example 203a]
< 50 nM	C[C@@H](NC(=O)c1ccc(C(F)(F)F)cc1)[C@H]1CC[C@@H](c2ccnc3ccc(F)cc32)CC1 [Example 249, N-((R)-1-((1s,4S)-4-(6-fluoroquinolin-4-yl)cyclohexyl)ethyl)-4-(trifluoromethyl)benzamide]
< 50 nM	C[C@@H](NC(=O)c1ccc(C#N)cc1)[C@H]1CC[C@@H](c2ccnc3ccc(F)cc32)CC1 [Example 176, 4-cyano-N-((R)-1-(cis-4-(6-fluoroquinolin-4-yl)cyclohexyl)ethyl)benzamide]
< 2000 nM	CC(NC(=O)c1ccc(Cl)cc1)C1CCC(c2ccc(C(F)(F)F)nc2)CC1 (single isomer, unassigned) [Example 217, 4-chloro-N-(1-(4-(6-(trifluoromethyl)pyridin-3-yl)cyclohexyl)ethyl)benzamide]
< 250 nM	CC(NC(=O)c1ccc(Cl)cc1)C1CCC(c2ccnc(C(F)(F)F)c2)CC1 (stereo not shown) [Example 211, 4-chloro-N-(1-(4-(2-(trifluoromethyl)pyridin-4-yl)cyclohcxyl)ethyl)benzamide]
< 250 nM	CC(NC(=O)c1ccc(Cl)cc1)C1CCC(c2ccnc(C(F)(F)F)c2)CC1 (single isomer, unassigned) [Example 214, 4-chloro-N-(1-(4-(2-(trifluorornethyl)pyridin-4-yl)cyclohexyl)ethyl)benzamide]
< 250 nM	CCC(NC(=O)c1ccc(Cl)cc1)C1CCC(c2cccc(C(F)F)n2)CC1 (mixture of isomers) [Example 231a, 4-chloro-N-(1-(4-(6-(difluoromethyl)pyridin-2-yl)cyclohexyl)propyl)benzamide]
< 50 nM	Cc1c(C2CCC(C(C)NC(=O)c3ccc(-c4ccccc4)cc3)CC2)ccnc1F (stereo not shown) [Example 221, N-(1-(4-(2-fluoro-3-methylpyridin-4-yl)cyclohexyl)ethyl)-[1,1′-biphenyl]-4-carboxamide]
< 50 nM	Cc1cc(C2CCC(C(C)NC(=O)c3ccc(Cl)cc3)CC2)ccn1 (single isomer, unassigned) [Example 157b, 4-Chloro-N-(1-(4-(2-methylpyridin-4-yl)cyclohexyl)ethyl) Benzamide]
< 250 nM	C[C@@H](NC(=O)c1ccc(N2CCOCC2)cc1)[C@H]1CC[C@@H](c2ccnc3ccc(F)cc32)CC1 [Example 246, N-((R)-1-((1s,4S)-4-(6-fluoroquinolin-4-yl)cyclohexyl)ethyl)-4-morpholinobenzamide]
< 50 nM	CCC(NC(=O)c1ccc(Cl)cc1)C1CCC(c2ccnc3ccc(F)cc23)CC1 (single isomer, unassigned) [Example 164d, 4-Chloro-N-(1-(4-(6-fluoroquinolin-4-yl)cyclohexyl)propyl)benzamide]
< 250 nM	CC(NC(=O)c1ccc(Cl)cc1)C1CCC(c2ccc(C(F)(F)F)nc2)CC1 (single isomer, unassigned) [Example 220, 4-chloro-N-(1-(4-(6-(trifluoromethyl)pyridin-3-yl)cyclohexyl)ethyl)benzamide]
< 50 nM	C[C@@H](NC(=O)c1ccc(-c2nnco2)cc1)[C@H]1CC[C@@H](c2ccnc3ccc(F)cc32)CC1 [Example 244, N-((R)-1-((1s,4S)-4-(6-fluoroquinolin-4-yl)cyclohexyl)ethyl)-4-(1,3,4-oxadiazol-2-yl)benzamide]
< 2000 nM	C=CC[C@@H](NC(=O)c1ccc(-c2ccccc2)cc1)[C@H]1CC[C@@H](c2ccnc3ccc(F)cc32)CC1 [Example 199, N—((R)-1-((is, 4S)-4-(6-fluoroquinolin-4-yl)cyclohexyl)but-3-en-1-yl)-[1,1′-biphenyl]-4-carboxamide]
< 250 nM	CC[C@H](NC(=O)c1ccc(Cl)cc1)[C@H]1CC[C@@H](c2cnc3ccccc3c2)CC1 (single isomer, unassigned) [Example 203b]
< 2000 nM	C[C@@H](NC(=O)c1ccc(-c2ccc(S(C)(=O)=O)nc2)cc1)[C@H]1CC[C@@H](c2ccnc3ccc(F)cc32)CC1 [Example 237, N-((R)-1-((1s,4S)-4-(6-fluoroquinolin-4-yl)cyclohexyl)ethyl)-4-(6-(methylsulfonyl)pyridin-3-yl)benzamide]
< 50 nM	C[C@@H](NC(=O)c1ccc(-n2cccc2)cc1)[C@H]1CC[C@@H](c2ccnc3ccc(F)cc32)CC1 [Example 195, N-((R)-1-(cis-4-(6-fluoroquinolin-4-yl)cyclohexyl)ethyl)-4-(1H-pyrrol-1-yl)benzamide]
< 50 nM	C[C@@H](NC(=O)c1ccc(-n2ccnc2)cc1)[C@H]1CC[C@@H](c2ccnc3ccc(F)cc32)CC1 [Example 196, N-((R)-1-(cis-4-(6-fluoroquinolin-4-yl)cyclohexyl)ethyl)-4-(1H-imidazol-1-yl)benzamide]
